# Results: ChEMBL document CHEMBL1139137, “Modifications of the GSK3beta substrate sequence to produce substrate-mimetic inhibitors of Akt as potential anti-cancer therapeutics” (Bioorg Med Chem Lett, 2007)
# Starred links: 1 amine or outer side, 2 acyl side, 3 side chain; linkers in the order of their positions; H or OH if unused. Non-standard residues stand in square brackets, D forms with d. Residues, ends and D or L forms follow the SMILES beside them. *: point of attachment. NH(2-(1-naphthyl)ethyl) = c1ccc2c(CCN*)cccc2c1; NHCH2CH2(piperidin-1-yl) = C1CCN(CCN*)CC1; X4 = c1ccc(CC2CCN(CCN*)CC2)cc1; X1 = CC(=O)Nc1cccc(OCCCN*)c1; X2 = c1ccc2cc(CCN*)ccc2c1; 4Abz = Nc1ccc(C(=O)O)cc1; X3 = CCCCCc1ccc(CN*)cc1; CO = O=C([*:1])[*:2]; NHBn = c1ccc(CN*)cc1; NHHex = CCCCCCN*
# Molecular target: RAC-alpha serine/threonine-protein kinase (Homo sapiens, UniProt P31749)
# Assay: Inhibition of Akt after 1 hr by fluorescence polarization assay
# Chain of RAC-alpha serine/threonine-protein kinase (P31749 whole entry): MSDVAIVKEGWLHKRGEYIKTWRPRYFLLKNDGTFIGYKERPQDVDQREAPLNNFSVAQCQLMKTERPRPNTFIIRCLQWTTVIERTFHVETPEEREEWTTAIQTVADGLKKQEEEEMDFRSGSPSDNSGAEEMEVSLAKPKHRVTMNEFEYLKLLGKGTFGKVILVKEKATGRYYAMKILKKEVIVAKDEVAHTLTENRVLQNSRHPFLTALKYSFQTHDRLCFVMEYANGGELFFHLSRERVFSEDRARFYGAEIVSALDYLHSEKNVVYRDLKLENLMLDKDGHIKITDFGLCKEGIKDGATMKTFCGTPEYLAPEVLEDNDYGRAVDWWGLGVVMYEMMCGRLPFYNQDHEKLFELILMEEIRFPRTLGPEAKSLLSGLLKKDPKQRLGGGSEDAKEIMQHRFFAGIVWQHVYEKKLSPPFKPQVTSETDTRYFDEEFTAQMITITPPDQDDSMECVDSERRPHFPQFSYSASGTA
row,Compound,IC50 [µM]
1,CC(=O)NCC(=O)N[C@@H](CCCNC(=N)N)C(=O)N1CCC[C@H]1C(=O)N[C@@H](CCCNC(=N)N)C(=O)Nc1ccc(C(=O)N[C@H](C(=O)N[C@@H](Cc2ccccc2)C(=O)NCCCOc2cccc(NC(C)=O)c2)C(C)C)cc1 (Ac-GRPR[4Abz]VF-X1),322
2,CC(=O)NCC(=O)N[C@@H](CCCNC(=N)N)C(=O)N1CCC[C@H]1C(=O)N[C@@H](CCCNC(=N)N)C(=O)N[C@@H](C)C(=O)N[C@@H](C)C(=O)N[C@H](C(=O)N[C@@H](Cc1ccccc1)C(=O)NCc1ccccc1)C(C)C (Ac-GRPRAAVF-NHBn),438
3,CC(=O)NCC(=O)N[C@@H](CCCN=C(N)N)C(=O)N1CCC[C@H]1C(=O)N[C@@H](C)C(=O)Nc1ccc(C(=O)N[C@H](C(=O)N[C@@H](Cc2ccccc2)C(=O)NCc2ccccc2)C(C)C)cc1 (Ac-GRPA[4Abz]VF-NHBn),79
4,CC(C)[C@H](NC(=O)c1ccc(NC(=N)N)cc1)C(=O)N[C@@H](Cc1ccccc1)C(=O)NCc1ccccc1,77
5,CC(=O)NCC(=O)N[C@@H](C)C(=O)N1CCC[C@H]1C(=O)N[C@@H](CCCNC(=N)N)C(=O)Nc1ccc(C(=O)N[C@H](C(=O)N[C@@H](Cc2ccccc2)C(=O)NCc2ccccc2)C(C)C)cc1 (Ac-GAPR[4Abz]VF-NHBn),41
6,Ac-GRPRTTHF-OH,> 500
7,CC(=O)NCC(=O)N[C@@H](CCCNC(=N)N)C(=O)N1CCC[C@H]1C(=O)N[C@@H](CCCNC(=N)N)C(=O)N[C@H](C(=O)N[C@H](C(=O)N[C@H](C(=O)N[C@@H](Cc1ccccc1)C(=O)NCc1ccccc1)C(C)C)[C@@H](C)O)[C@@H](C)O (Ac-GRPRTTVF-NHBn),239
8,Ac-GRPRTTCF-OH,241
9,CC(=O)NCC(=O)N[C@@H](CCCNC(=N)N)C(=O)N1CCC[C@H]1C(=O)N[C@@H](CCCNC(=N)N)C(=O)Nc1ccc(C(=O)N[C@H](C(=O)N[C@@H](Cc2ccccc2)C(=O)NCCN2CCCCC2)C(C)C)cc1 (Ac-GRPR[4Abz]VF-{NHCH2CH2(piperidin-1-yl)}),> 500
10,Ac-GRPRTTVF-OH,445
11,CC(=O)N[C@@H](CCCN=C(N)N)C(=O)Nc1ccc(C(=O)N[C@H](C(=O)N[C@@H](Cc2ccccc2)C(=O)NCCc2ccc3ccccc3c2)C(C)C)cc1,51
12,C[C@@H](O)[C@H](NC(=O)[C@H](CCCNC(=N)N)NC(=O)[C@@H]1CCCN1C(=O)[C@H](CCCNC(=N)N)NC(=O)CNC(=O)O)C(=O)N[C@H](C(=O)N[C@@H](CC(N)=O)C(=O)N[C@@H](Cc1ccccc1)C(=O)O)[C@@H](C)O ({CO}-GRPRTTNF-OH),229
13,CCCCCc1ccc(CNC(=O)[C@H](Cc2ccccc2)NC(=O)[C@@H](NC(=O)c2ccc(NC(=O)[C@H](CCCN=C(N)N)NC(=O)[C@@H]3CCCN3C(=O)[C@H](CCCN=C(N)N)NC(=O)CNC(C)=O)cc2)C(C)C)cc1 (Ac-GRPR[4Abz]VF-X3),96
14,CC(C)[C@H](NC(=O)c1ccc(NC(=O)CCCCNC(=N)N)cc1)C(=O)N[C@@H](Cc1ccccc1)C(=O)NCc1ccccc1,193
15,CC(=O)NCC(=O)N[C@@H](CCCNC(=N)N)C(=O)N1CCC[C@H]1C(=O)N[C@@H](CCCNC(=N)N)C(=O)Nc1ccc(C(=O)N[C@H](C(=O)N[C@@H](Cc2ccccc2)C(=O)NCCN2CCC(Cc3ccccc3)CC2)C(C)C)cc1 (Ac-GRPR[4Abz]VF-X4),94
16,CC(C)[C@H](NC(=O)c1ccc(N(CC(=O)NC(C)(C)C)C(=O)CCCCNC(=N)N)cc1)C(=O)N[C@@H](Cc1ccccc1)C(=O)NCc1ccccc1,58
17,CCCCCc1ccc(CNC(=O)[C@H](Cc2ccccc2)NC(=O)[C@@H](NC(=O)c2ccc(NC(=O)[C@H](CCCN=C(N)N)NC(C)=O)cc2)C(C)C)cc1,104
18,Ac-GRPRTTAF-OH,409
19,CC(=O)N[C@@H](CCCN=C(N)N)C(=O)Nc1ccc(C(=O)N[C@H](C(=O)N[C@@H](Cc2ccccc2)C(=O)NCc2ccccc2)C(C)C)cc1 (Ac-R[4Abz]VF-NHBn),119
20,Ac-GRPRTTWF-OH,> 500

# More lines, now with the values ahead:
row,IC50 [µM],Compound
1,89,CC(=O)N[C@@H](CCCNC(=N)N)C(=O)Nc1ccc(C(=O)N[C@H](C(=O)N[C@@H](Cc2ccccc2)C(=O)NCCc2cccc3ccccc23)C(C)C)cc1
2,> 500,CC(=O)NCC(=O)N[C@@H](C)C(=O)N1CCC[C@H]1C(=O)N[C@@H](C)C(=O)Nc1ccc(C(=O)N[C@H](C(=O)N[C@@H](Cc2ccccc2)C(=O)NCc2ccccc2)C(C)C)cc1 (Ac-GAPA[4Abz]VF-NHBn)
3,36,CC(=O)NCC(=O)N[C@@H](CCCN=C(N)N)C(=O)N1CCC[C@H]1C(=O)N[C@@H](CCCN=C(N)N)C(=O)Nc1ccc(C(=O)N[C@H](C(=O)N[C@@H](Cc2ccccc2)C(=O)NCCc2ccc3ccccc3c2)C(C)C)cc1 (Ac-GRPR[4Abz]VF-X2)
4,163,CCCCCCNC(=O)[C@H](Cc1ccccc1)NC(=O)[C@@H](NC(=O)c1ccc(NC(=O)[C@H](CCCNC(=N)N)NC(C)=O)cc1)C(C)C
5,14,CC(C)[C@H](NC(=O)c1ccc(N(CC(=O)NCc2ccccc2)C(=O)CCCCNC(=N)N)cc1)C(=O)N[C@@H](Cc1ccccc1)C(=O)NCc1ccccc1
6,> 500,CC(C)[C@H](NC(=O)c1ccc(CNC(=N)N)cc1)C(=O)N[C@@H](Cc1ccccc1)C(=O)NCc1ccccc1
7,120,CC(C)[C@H](NC(=O)c1ccc(CCN=C(N)N)cc1)C(=O)N[C@@H](Cc1ccccc1)C(=O)NCc1ccccc1
8,52,CCCCCCNC(=O)[C@H](Cc1ccccc1)NC(=O)[C@@H](NC(=O)c1ccc(NC(=O)[C@H](CCCN=C(N)N)NC(=O)[C@@H]2CCCN2C(=O)[C@H](CCCN=C(N)N)NC(=O)CNC(C)=O)cc1)C(C)C (Ac-GRPR[4Abz]VF-NHHex)
9,62,CC(=O)NCC(=O)N[C@@H](CCCNC(=N)N)C(=O)N1CCC[C@H]1C(=O)N[C@@H](CCCNC(=N)N)C(=O)Nc1ccc(C(=O)N[C@H](C(=O)N[C@@H](Cc2ccccc2)C(=O)NCCc2cccc3ccccc23)C(C)C)cc1 (Ac-GRPR[4Abz]VF-{NH(2-(1-naphthyl)ethyl)})
10,390,CC(C)[C@H](NC(=O)c1ccc(NCCNC(=N)N)cc1)C(=O)N[C@@H](Cc1ccccc1)C(=O)NCc1ccccc1
11,> 500,Ac-GRPRTTFF-OH
